Laboratory results: US8067424B2, “Selective inhibitors for cyclin-dependent kinases” (Emory University, priority 2007, dated 2011)
Like-named read-outs stand apart in the source and are kept apart here.

Tests used:
MCF7 = assay: cells; settings: Homo sapiens
PC-3 [1] = tested on: PC-3
SK-MEL-2 = assay: cells; settings: Homo sapiens
PC-3 [2] = assay: cells; settings: Homo sapiens
MOLT-4 [3] = tested on: MOLT-4
RPMI-8226 = assay: cells; settings: Homo sapiens
SF-268 = assay: cells; settings: Homo sapiens
UACC-257 [4] = assay: cells; settings: Homo sapiens
UACC-257 [5] = tested on: UACC-257
HS 578T = assay: cells; settings: Homo sapiens
IGROV1 = assay: cells; settings: Homo sapiens
UO-31 = assay: cells; settings: Homo sapiens
UACC-62 = assay: cells; settings: Homo sapiens
LOX IMVI [6] = settings: for Mean Optical Densities / Percent Growth: LOX IMVI
MOLT-4 [7] = assay: cells; settings: Homo sapiens
LOX IMVI [8] = assay: cells; settings: Homo sapiens
[9] = MDA-MB-435, log10 concentration −4.0
[10] = MDA-MB-435, log10 concentration −5.0
[11] = MDA-MB-435, log10 concentration −6.0
[12] = MDA-MB-435, log10 concentration −7.0
[13] = MDA-MB-435, log10 concentration −8.0
[14] = SW-620, log10 concentration −4.0
[15] = SW-620, log10 concentration −5.0
[16] = SW-620, log10 concentration −7.0
[17] = SW-620, log10 concentration −8.0
[18] = SNB-19, log10 concentration −4.0
[19] = SNB-19, log10 concentration −5.0
[20] = SNB-19, log10 concentration −6.0
[21] = SNB-19, log10 concentration −7.0
[22] = SNB-19, log10 concentration −8.0
[23] = MOLT-4, log10 concentration −4.0
[24] = MOLT-4, log10 concentration −6.0
[25] = MOLT-4, log10 concentration −7.0
[26] = MOLT-4, log10 concentration −8.0
[27] = NCI-H226, log10 concentration −4.0
[28] = NCI-H226, log10 concentration −5.0
[29] = NCI-H226, log10 concentration −6.0
[30] = NCI-H226, log10 concentration −7.0
[31] = NCI-H226, log10 concentration −8.0
[32] = UACC-257, log10 concentration −4.0
[33] = UACC-257, log10 concentration −5.0
[34] = UACC-257, log10 concentration −6.0
[35] = UACC-257, log10 concentration −7.0
[36] = UACC-257, log10 concentration −8.0
[37] = MDA-MB-468, log10 concentration −4.0
[38] = MDA-MB-468, log10 concentration −5.0
[39] = MDA-MB-468, log10 concentration −6.0
[40] = MDA-MB-468, log10 concentration −7.0
[41] = MDA-MB-468, log10 concentration −8.0

CC(C)c1cnn2c(NCc3ccccc3)cc(N[C@@H](CO)[C@H](O)CO)nc12 [ICEC0318, (3S)-3-(7-(Benzylamino)-3-isopropylpyrazolo[1,5-a]pyrimidin-5-ylamino)butane-1,2,4-triol]
GI50 (MCF7; MCF7): 221 nM | CC50 (MCF7; MCF7, read-out: LC50): > 100000 nM | TGI (PC-3 [1]; PC-3 (Prostate Cancer)): >1.00E−4 | Mean Optical Densities (PC-3 [1]; PC-3, log10 concentration −4.0): 0.173 | Percent Growth (PC-3 [1]; PC-3, log10 concentration −4.0): 2% | Mean Optical Densities (PC-3 [1]; PC-3, log10 concentration −5.0): 0.200 | Percent Growth (PC-3 [1]; PC-3, log10 concentration −5.0): 9% | Mean Optical Densities (PC-3 [1]; PC-3, log10 concentration −6.0): 0.218 | Percent Growth (PC-3 [1]; PC-3, log10 concentration −6.0): 14% | Mean Optical Densities (PC-3 [1]; PC-3, log10 concentration −7.0): 0.486 | Percent Growth (PC-3 [1]; PC-3, log10 concentration −7.0): 85% | Mean Optical Densities (PC-3 [1]; PC-3, log10 concentration −8.0): 0.532 | Percent Growth (PC-3 [1]; PC-3, log10 concentration −8.0): 97% | GI50 (SK-MEL-2; SK-MEL-2): 404 nM | CC50 (SK-MEL-2; SK-MEL-2, read-out: LC50): > 100000 nM | TGI (MDA-MB-435; MDA-MB-435 (Breast Cancer)): 1.15E−5 | Mean Optical Densities (MDA-MB-435; [9]): 0.242 | Percent Growth (MDA-MB-435; [9]): −48% | Mean Optical Densities (MDA-MB-435; [10]): 0.511 | Percent Growth (MDA-MB-435; [10]): 3% | Mean Optical Densities (MDA-MB-435; [11]): 0.659 | Percent Growth (MDA-MB-435; [11]): 13% | Mean Optical Densities (MDA-MB-435; [12]): 1.781 | Percent Growth (MDA-MB-435; [12]): 86% | Mean Optical Densities (MDA-MB-435; [13]): 2.132 | Percent Growth (MDA-MB-435; [13]): 109% | TGI (SW-620; SW-620 (Colon Cancer)): 1.00E−6 | Mean Optical Densities (SW-620; [14]): 0.101 | Percent Growth (SW-620; [14]): −29% | Mean Optical Densities (SW-620; [15]): 0.125 | Percent Growth (SW-620; [15]): −12% | Mean Optical Densities (SW-620; SW-620, log10 concentration −6.0): 0.412 | Mean Optical Densities (SW-620; [16]): 0.782 | Percent Growth (SW-620; [16]): 92% | Mean Optical Densities (SW-620; [17]): 0.839 | Percent Growth (SW-620; [17]): 100% | TGI (SNB-19; SNB-19 (CNS Cancer)): 4.89E−5 | Mean Optical Densities (SNB-19; [18]): 0.492 | Percent Growth (SNB-19; [18]): −2% | Mean Optical Densities (SNB-19; [19]): 0.537 | Percent Growth (SNB-19; [19]): 4% | Mean Optical Densities (SNB-19; [20]): 0.580 | Percent Growth (SNB-19; [20]): 9% | Mean Optical Densities (SNB-19; [21]): 1.247 | Percent Growth (SNB-19; [21]): 84% | Mean Optical Densities (SNB-19; [22]): 1.309 | Percent Growth (SNB-19; [22]): 91% | GI50 (PC-3 [2]; PC-3): 314 nM | CC50 (PC-3 [2]; PC-3, read-out: LC50): > 100000 nM | TGI (MOLT-4 [3]; MOLT-4 (Leukemia)): >1.00E−4 | Mean Optical Densities (MOLT-4 [3]; [23]): 0.449 | Percent Growth (MOLT-4 [3]; [23]): 15% | Mean Optical Densities (MOLT-4 [3]; MOLT-4, log10 concentration −5.0): 0.329 | Mean Optical Densities (MOLT-4 [3]; [24]): 0.368 | Percent Growth (MOLT-4 [3]; [24]): 5% | Mean Optical Densities (MOLT-4 [3]; [25]): 0.987 | Percent Growth (MOLT-4 [3]; [25]): 82% | Mean Optical Densities (MOLT-4 [3]; [26]): 1.072 | Percent Growth (MOLT-4 [3]; [26]): 92% | Mean Optical Densities (NCI-H226; [27]): 0.725 | Percent Growth (NCI-H226; [27]): 4% | Mean Optical Densities (NCI-H226; [28]): 0.613 | Percent Growth (NCI-H226; [28]): −9% | Mean Optical Densities (NCI-H226; [29]): 0.662 | Percent Growth (NCI-H226; [29]): −1% | Mean Optical Densities (NCI-H226; [30]): 1.920 | Percent Growth (NCI-H226; [30]): 89% | Mean Optical Densities (NCI-H226; [31]): 2.076 | Percent Growth (NCI-H226; [31]): 101% | GI50 (RPMI-8226; RPMI-8226): 227 nM | CC50 (RPMI-8226; RPMI-8226, read-out: LC50): > 100000 nM | GI50 (SF-268; SF-268): 326 nM | CC50 (SF-268; SF-268, read-out: LC50): > 100000 nM | GI50 (UACC-257 [4]; UACC-257): 344 nM | CC50 (UACC-257 [4]; UACC-257, read-out: LC50): > 100000 nM | TGI (UACC-257 [5]; UACC-257 (Melanoma)): 3.88E−5 | Mean Optical Densities (UACC-257 [5]; [32]): 0.848 | Percent Growth (UACC-257 [5]; [32]): −4% | Mean Optical Densities (UACC-257 [5]; [33]): 0.933 | Percent Growth (UACC-257 [5]; [33]): 5% | Mean Optical Densities (UACC-257 [5]; [34]): 0.948 | Percent Growth (UACC-257 [5]; [34]): 7% | Mean Optical Densities (UACC-257 [5]; [35]): 1.891 | Percent Growth (UACC-257 [5]; [35]): 100% | Mean Optical Densities (UACC-257 [5]; [36]): 1.906 | Percent Growth (UACC-257 [5]; [36]): 102% | GI50 (HS 578T): 276 nM | CC50 (HS 578T; read-out: LC50): > 100000 nM | GI50 (IGROV1; IGROV-1): 210 nM | CC50 (IGROV1; IGROV-1, read-out: LC50): > 100000 nM | GI50 (UO-31; UO-31): 289 nM | CC50 (UO-31; UO-31, read-out: LC50): > 100000 nM | GI50 (UACC-62; UACC-62): 155 nM | CC50 (UACC-62; UACC-62, read-out: LC50): 644 nM | TGI (LOX IMVI [6]; LOX IMVI (Melanoma)): 1.46E−5 | Mean Optical Densities (LOX IMVI [6]; log10 concentration −4.0): 0.224 | Percent Growth (LOX IMVI [6]; log10 concentration −4.0): −19% | Mean Optical Densities (LOX IMVI [6]; log10 concentration −5.0): 0.328 | Percent Growth (LOX IMVI [6]; log10 concentration −5.0): 4% | Mean Optical Densities (LOX IMVI [6]; log10 concentration −6.0): 0.326 | Percent Growth (LOX IMVI [6]; log10 concentration −6.0): 4% | Mean Optical Densities (LOX IMVI [6]; log10 concentration −7.0): 1.208 | Percent Growth (LOX IMVI [6]; log10 concentration −7.0): 64% | Mean Optical Densities (LOX IMVI [6]; log10 concentration −8.0): 1.614 | Percent Growth (LOX IMVI [6]; log10 concentration −8.0): 92% | GI50 (MDA-MB-468; Homo sapiens, MDA-MB-468): 165 nM | CC50 (MDA-MB-468; Homo sapiens, MDA-MB-468, read-out: LC50): 803 nM | TGI (MDA-MB-468; MDA-MB-468 (Breast Cancer)): 3.64E−7 | Mean Optical Densities (MDA-MB-468; [37]): 0.121 | Percent Growth (MDA-MB-468; [37]): −72% | Mean Optical Densities (MDA-MB-468; [38]): 0.153 | Percent Growth (MDA-MB-468; [38]): −64% | Mean Optical Densities (MDA-MB-468; [39]): 0.154 | Percent Growth (MDA-MB-468; [39]): −64% | Mean Optical Densities (MDA-MB-468; [40]): 0.884 | Percent Growth (MDA-MB-468; [40]): 82% | Mean Optical Densities (MDA-MB-468; [41]): 0.946 | Percent Growth (MDA-MB-468; [41]): 93% | GI50 (MOLT-4 [7]; MOLT-4): 259 nM | CC50 (MOLT-4 [7]; MOLT-4, read-out: LC50): > 100000 nM | GI50 (LOX IMVI [8]): 171 nM | CC50 (LOX IMVI [8]; read-out: LC50): > 100000 nM
